Laboratory results as given in paper PMC8973347, “Discovery of novel sulphonamide hybrids that inhibit LSD1 against bladder cancer cells” (Journal of Enzyme Inhibition and Medicinal Chemistry, 2022).
Where two headings read alike, the source gives them in different places.

Tests used:
MAO-A = target: T1, MAO-A (Homo sapiens, UniProt P21397); assay: MAO-A/B biochemical kit, MAO-A
T1 construct: purchased Promega
T1 sequence (P21397 1-527): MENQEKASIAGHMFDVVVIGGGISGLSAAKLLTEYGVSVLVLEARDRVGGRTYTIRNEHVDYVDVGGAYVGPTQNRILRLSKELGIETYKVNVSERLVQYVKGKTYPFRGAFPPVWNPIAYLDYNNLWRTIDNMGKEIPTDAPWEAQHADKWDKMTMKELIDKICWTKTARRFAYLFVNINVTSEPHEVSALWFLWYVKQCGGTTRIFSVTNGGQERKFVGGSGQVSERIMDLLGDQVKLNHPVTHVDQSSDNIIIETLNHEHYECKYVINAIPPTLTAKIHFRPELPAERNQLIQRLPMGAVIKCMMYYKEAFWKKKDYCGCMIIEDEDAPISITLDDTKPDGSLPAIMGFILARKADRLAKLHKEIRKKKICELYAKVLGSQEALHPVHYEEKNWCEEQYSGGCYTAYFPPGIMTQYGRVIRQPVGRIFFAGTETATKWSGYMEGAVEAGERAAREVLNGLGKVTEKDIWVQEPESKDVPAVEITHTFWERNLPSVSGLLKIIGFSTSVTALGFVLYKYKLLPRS
Description: (§1) LSD1 inhibitor screening assay kit was purchased to evaluate for the enzyme inhibition activity of all synthetic compounds (Cayman Chemical, Fort Annapolis, MI). The MAO-A/B biochemical kit was purchased to explore the inhibitory activity against MAO-A and MAO-B (Promega, Madison, WI). […] The signal of each well was read by a GloMax Explorer (Beijing Yuanpinghao Biotechnology Co., Ltd, Beijing, China).

MAO-B = target: T2, MAO-B (Homo sapiens, UniProt P27338); assay: MAO-A/B biochemical kit, MAO-B
T2 construct: purchased Promega
T2 sequence (P27338 1-520): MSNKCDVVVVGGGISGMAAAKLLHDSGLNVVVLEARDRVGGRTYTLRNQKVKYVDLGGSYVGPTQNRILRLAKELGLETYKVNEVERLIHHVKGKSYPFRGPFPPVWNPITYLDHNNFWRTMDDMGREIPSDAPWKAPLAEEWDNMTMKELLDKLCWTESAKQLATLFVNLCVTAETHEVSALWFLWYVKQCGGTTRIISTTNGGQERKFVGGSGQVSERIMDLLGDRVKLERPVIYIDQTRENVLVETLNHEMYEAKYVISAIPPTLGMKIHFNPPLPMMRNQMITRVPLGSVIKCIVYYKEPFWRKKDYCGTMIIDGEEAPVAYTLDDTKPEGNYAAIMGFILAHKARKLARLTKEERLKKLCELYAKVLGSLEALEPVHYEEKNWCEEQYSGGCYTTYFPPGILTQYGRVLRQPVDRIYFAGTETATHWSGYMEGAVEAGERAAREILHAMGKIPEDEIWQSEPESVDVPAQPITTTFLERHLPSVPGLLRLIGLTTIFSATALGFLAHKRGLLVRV
Description: as §1

LSD1 = LSD1 (Homo sapiens, UniProt O60341); assay: LSD1 inhibitor screening assay kit
Description: as §1

NAMPT = tested on: NAMPT; set-up: method as in PMID 30992165; settings: cited from earlier work
DU145 = tested on: DU145; set-up: method as in PMID 30992165; settings: cited from earlier work
Hela [1] = tested on: Hela; set-up: method as in PMID 30992165; settings: cited from earlier work
H1975 = tested on: H1975; set-up: method as in PMID 30992165; settings: cited from earlier work
PC-3 cells = tested on: PC-3 cells; set-up: method as in PMID 28872607; settings: read-out: IC50 against PC-3 cells; cited from earlier work
HCT-116 = tested on: HCT-116; set-up: method as in PMID 31181480; settings: read-out: IC50 against HCT-116; cited from earlier work
RKO = tested on: RKO; set-up: method as in PMID 31181480; settings: read-out: IC50 against RKO; cited from earlier work
A2780 = tested on: A2780; set-up: method as in PMID 31181480; settings: read-out: IC50 against A2780; cited from earlier work
Hela [2] = tested on: Hela; set-up: method as in PMID 31181480; settings: read-out: IC50 against Hela; cited from earlier work

SMILES | IC50 (MAO-A) [µM] | IC50 (MAO-B) [µM] | IC50 (LSD1) [µM] | other results
COc1cc(N(CCBr)S(=O)(=O)c2cccc3cccnc23)cc(OC)c1OC [Compound K1, N-(2-bromoethyl)-N-(3,4,5-trimethoxyphenyl)quinoline-8-sulphonamide] | > 120 | > 120 | 14.8 ± 2.04 | melting point: 158 to 160 °C
Cc1ccccc1NS(=O)(=O)c1cccc(CCCCCCNC(=O)/C=C/c2cccnc2)c1 [Compound 4] |  |  |  | IC50 (NAMPT): 0.00508 µM; antiproliferative activity against DU145 cells (DU145): single-digit nanomolar; antiproliferative activity against Hela cells (Hela [1]): single-digit nanomolar; antiproliferative activity against H1975 cells (H1975): single-digit nanomolar
COc1cc(N(CCSC(=S)N2CCN(C(=O)OC(C)(C)C)CC2)S(=O)(=O)c2cccc3cccnc23)cc(OC)c1OC [Compound L1, Tert-butyl-4-(((2-(N-(3,4,5-trimethoxyphenyl)quinoline-8-sulfonamido)ethyl)thio)carbonothioyl)piperazine-1-carboxylate] | > 120 | > 120 | 2.73 ± 0.29 | melting point: 121 to 123 °C
COc1cc(N(CCSC(=S)N2CCN(CCO)CC2)S(=O)(=O)c2cccc3cccnc23)cc(OC)c1OC [Compound L3, 2-(N-(3,4,5-trimethoxyphenyl)quinoline-8-sulfonamido)ethyl-4–(2-hydroxyethyl)piperazine-1-carbodithioate] | > 120 | > 120 |  | IC50 (LSD1; read-out: IC50 (μM) LSD1): 1.85 ± 0.07 µM
COc1cc(N(CCCCBr)S(=O)(=O)c2cccc3cccnc23)cc(OC)c1OC [Compound K3, N-(4-bromobutyl)-N-(3,4,5-trimethoxyphenyl)quinoline-8-sulphonamide] | > 120 | > 120 | 6.32 ± 0.77 | melting point: 103 to 104 °C
CC(C)(C)c1ccc(S(=O)(=O)Nc2cccc3cccnc23)cc1 [Compound J3, 4-(Tert-butyl)-N-(quinolin-8-yl)benzenesulphonamide] | > 120 | > 120 | 61.9 ± 2.46 | 
N[C@H]1CC[C@H](N[C@@H]2C[C@H]2c2ccccc2)CC1 [ORY-1001, reference compound] | > 120 |  |  | 
COc1cc(NS(=O)(=O)c2cccc3cccnc23)cc(OC)c1OC [Compound J7, N-(3,4,5-trimethoxyphenyl)quinoline-8-sulphonamide] | > 120 | > 120 | 11.6 ± 1.92 | 
COc1ccc(S(=O)(=O)Nc2cccc3cccnc23)cc1OC [Compound J1, 3,4-Dimethoxy-N-(quinolin-8-yl)benzenesulphonamide] | > 120 | > 120 | 33.8 ± 2.04 | 
Cc1ccc(S(=O)(=O)NCc2cn(Cc3cccc(Oc4ccccc4)c3)nn2)cc1 [Compound 5] |  |  |  | IC50 (PC-3 cells): 4.08 µM
O=S(=O)(Nc1cccc2cccnc12)c1ccc(Br)cc1 [Compound J6, 4-Bromo-N-(quinolin-8-yl)benzenesulphonamide] | > 120 | > 120 | 61.8 ± 5.64 | melting point: 192 to 194 °C
COc1ccc(S(=O)(=O)Nc2cccc3cccnc23)cc1 [Compound J2, 4-Methoxy-N-(quinolin-8-yl)benzenesulphonamide] | > 120 | > 120 | 45.6 ± 1.12 | 
COc1cc(N(CCCBr)S(=O)(=O)c2cccc3cccnc23)cc(OC)c1OC [Compound K2, N-(3-bromopropyl)-N-(3,4,5-trimethoxyphenyl)quinoline-8-sulphonamide] | > 120 | > 120 | 9.63 ± 1.26 | 
COc1cc(N(CCCSC(=S)N2CCN(CCO)CC2)S(=O)(=O)c2cccc3cccnc23)cc(OC)c1OC [Compound L4, 3-(N-(3,4,5-trimethoxyphenyl)quinoline-8-sulfonamido)propyl-4–(2-hydroxyethyl)piperazine-1-carbodithioate] | > 120 | > 120 |  | IC50 (LSD1; read-out: IC50 (μM) LSD1): 0.67 ± 0.1 µM
CCN1CCN(C(=S)SCCCCN(c2cc(OC)c(OC)c(OC)c2)S(=O)(=O)c2cccc3cccnc23)CC1 [Compound L5, 4-(N-(3,4,5-trimethoxyphenyl)quinoline-8-sulfonamido)butyl-4-ethylpiperazine-1-carbodithioate] | > 120 | > 120 |  | LSD1 activity loss, hydroxyethyl group replaced with ethyl group (LSD1; compound L8 versus L5): over 80 fold; IC50 (LSD1; read-out: IC50 (μM) LSD1): 4.92 ± 0.13 µM
COc1cccc(Nc2ccnc3cc(OCCCc4ccccc4)ccc23)c1 [Compound 8] |  |  |  | IC50 (HCT-116): 2.56 µM; IC50 (RKO): 3.67 µM; IC50 (A2780): 3.46 µM; IC50 (Hela [2]): 2.71 µM
COc1cc(N(CCCSC(=S)N2CCN(C(=O)OC(C)(C)C)CC2)S(=O)(=O)c2cccc3cccnc23)cc(OC)c1OC [Compound L2, Tert-butyl-4-(((3-(N-(3,4,5-trimethoxyphenyl)quinoline-8-sulfonamido)propyl)thio)carbonothioyl)piperazine-1-carboxylate] | > 120 | > 120 | 1.39 ± 0.14 | melting point: 130 to 132 °C
COc1cc(N(CCCCSC(=S)N2CCN(C(=O)OC(C)(C)C)CC2)S(=O)(=O)c2cccc3cccnc23)cc(OC)c1OC [Compound L6, Tert-butyl-4-(((4-(N-(3,4,5-trimethoxyphenyl)quinoline-8-sulfonamido)butyl)thio)carbonothioyl)piperazine-1-carboxylate] | > 120 | > 120 | 0.23 ± 0.05 | melting point: 98 to 100 °C
Cc1ccc(S(=O)(=O)Nc2cccc3cccnc23)cc1 [Compound J5, 4-Methyl-N-(quinolin-8-yl)benzenesulphonamide] | > 120 | > 120 | 74.5 ± 2.67 | 
O=S(=O)(Nc1cccc2cccnc12)c1ccccc1 [Compound J4, N-(quinolin-8-yl)benzenesulphonamide] | > 120 | > 120 | 82.5 ± 3.38 | 
COc1cc(N(CCCCSC(=S)N2CCN(C)CC2)S(=O)(=O)c2cccc3cccnc23)cc(OC)c1OC [Compound L7, 4-(N-(3,4,5-trimethoxyphenyl)quinoline-8-sulfonamido)butyl-4-methylpiperazine-1-carbodithioate] | > 120 | > 120 |  | IC50 (LSD1; read-out: IC50 (μM) LSD1): 0.73 ± 0.08 µM
